Reference: patent US10597405B2, “Chemical compounds” (ASTRAZENECA AB, priority 2017, dated 2020)

Assays:
KRasG12C [1] = molecular target: T1, KRasG12C (Homo sapiens, UniProt P01116, G12C); assay: KRasG12C functional assay (HTRF nucleotide exchange / Raf RBD binding); assay type: biochemical; details: GDP loaded biotinylated KRasG12C, samples incubated 4 hrs, FRET readout; single experiment or average of two or more
T1 construct: biotin (biotinylated); made in house
Method: KRasG12C Functional Assay
All enzyme and substrate solutions were prepared in assay buffer containing 20 mM HEPES (pH 7.5), 5 mM MgCl2, 150 mM NaCl, and 0.01% Tween 20. […] In a separate mix 20 nM GST-Raf Ras binding domain (GST-Raf RBD, purified in house) and 4 μg/ml anti-GST XL665 antibody (Cisbio) was prepared in assay buffer containing 50 mM Potassium Fluoride and 0.05 mg/ml BSA and equilibrated for 4 hours before adding 0.6 μM Guanosine 5′-[γ-thio]triphosphate (GTPγS, Sigma) and 0.08 μM SOS (purified in house). 5 μl of the GST-RAF RBD mix was then dispensed into each well of the assay plate. […] This is detected simultaneously via the specific binding interaction between active GTPγS KRas^G12C with GST-Raf RBD which brings the europium and XL665 into close proximity enabling an increased FRET signal to be detected on a Pherastar (BMG) plate reader equipped with the HTRF filter module. […] IC50 values were calculated from normalised dose-response response FRET data curve fitted in Genedata screener (Basel, Switzerland).

KRasG12C [2] = molecular target: T1, KRasG12C; assay: KRasG12C Mass Spectrometry adducting assay; assay type: binding; details: 10 μM test compound, 4 μM KRasG12C, 4 hours reaction; single experiment or average of two or more
Method: KRasG12C Mass Spectrometry Adducting Assay
Enzyme solutions were prepared in assay buffer containing 20 mM HEPES (pH 7.5), 5 mM MgCl2, and 150 mM NaCl. 4 μM GDP loaded biotinylated KRas^G12C was prepared in assay buffer and 50 μl added into each well of a 96 well polypropylene assay plate (Greiner, #651201) containing 500 nl of 1 mM test compounds (final concentration 10 μM), this was allowed to react for 4 hours before the addition of 50 μl 1% Formic acid to quench the reaction. The plate was sealed before reading on a Xevo G2 QTOF (Waters) and Acquity LC system (Waters). 10 μl of sample was injected onto a Xbridge BEH300; C4; 3.5 um; 2.1×50 mm column (Waters) running a 3 minute gradient. Blank samples were run in between each test sample.
Data was analysed in Mass Lynx software (Waters), the Total ion count (TIC) trace was used and the eluted protein peak data combined. Using the combined spectrum the data was deconvoluted using MaxEnt1 method. The peak area for apo-protein KRas^G12C (APO) and KRAS+relative cmpd mass (adduct) were measured, and a percentage adduct was calculated using the following calculation: Percent adduct=100*(area of adduct peak/(sum of APO+adduct peaks)

With C=CC(=O)N1CCN2c3c(cnc4c(OC)c(-c5c(O)cccc5F)c(Cl)cc34)OC[C@H]2C1 (single isomer, unassigned) [Compound 24] the IC50 (KRasG12C [1]) was 0.07 µM and the “KRasG12C M.S. Binding Mean adduct %” value (KRasG12C [2]) was 96%.

With C=CC(=O)N1CCN2c3c(cnc4cc(-c5c(O)cccc5F)c(Cl)cc34)N(C)C(=O)C2(C)C1 (single isomer, unassigned) [Compound 33, 11-Chloro-10-(2-fluoro-6-hydroxyphenyl)-4a,6-dimethyl-3-(prop-2-enoyl)-2,3,4,4a-tetrahydro-1H-pyrazino[1′,2′:4,5]pyrazino[2,3-c]quinolin-5(6H)-one] the IC50 (KRasG12C [1]) was 0.745 µM and the “KRasG12C M.S. Binding Mean adduct %” value (KRasG12C [2]) was 87%.

C=CC(=O)N1CCN2c3c(cnc4c(C)c(-c5c(O)cccc5F)c(Cl)cc34)OC[C@H]2C1 (single isomer, unassigned) [Compound 38] was tested, and the IC50 (KRasG12C [1]) was 9.7 µM and the “KRasG12C M.S. Binding Mean adduct %” value (KRasG12C [2]) was 7%.

For C=CC(=O)N1CCN2c3c(cnc4cc(-c5c(F)ccc6cc[nH]c(=O)c56)c(Cl)cc34)OC[C@H]2C1 (single isomer, unassigned) [Compound 45], the IC50 (KRasG12C [1]) was 0.026 µM and the “KRasG12C M.S. Binding Mean adduct %” value (KRasG12C [2]) was 96%.

With C=CC(=O)N1CCN2c3c(cnc4c(F)c(-c5c(C)ccc6[nH]ncc56)c(Cl)cc34)N(C)C(=O)[C@H]2C1 (single isomer, unassigned) [Compound 49] the IC50 (KRasG12C [1]) was 0.047 µM and the “KRasG12C M.S. Binding Mean adduct %” value (KRasG12C [2]) was 95%.

C=CC(=O)N1CCN2c3c(cnc4cc(-c5c(C)ccc6[nH]cnc56)c(Cl)cc34)OC[C@H]2C1 (single isomer, unassigned) [Compound 65] was tested, and the IC50 (KRasG12C [1]) was 0.047 µM and the “KRasG12C M.S. Binding Mean adduct %” value (KRasG12C [2]) was 95%.

In the case of C=CC(=O)N1CCN2c3c(cnc4cc(-c5c(C)ccc6[nH]cnc56)c(Cl)cc34)OC[C@H]2C1 (single isomer, unassigned) [Compound 66], the IC50 (KRasG12C [1]) is reported as 0.654 µM and the “KRasG12C M.S. Binding Mean adduct %” value (KRasG12C [2]) is reported as 25%.

With C=CC(=O)N1CCN2c3c(cnc4cc(-c5c(C)ccc6[nH]c(=O)n(C)c56)c(Cl)cc34)OC[C@H]2C1 (single isomer, unassigned) [Compound 67] the IC50 (KRasG12C [1]) was 0.047 µM and the “KRasG12C M.S. Binding Mean adduct %” value (KRasG12C [2]) was 97%.

In the case of C=CC(=O)N1CCN2c3c(cnc4cc(-c5c(C)ccc6[nH]c(=O)n(C)c56)c(Cl)cc34)OC[C@H]2C1 (single isomer, unassigned) [Compound 68], the IC50 (KRasG12C [1]) is reported as 11.4 µM and the “KRasG12C M.S. Binding Mean adduct %” value (KRasG12C [2]) is reported as 4%.

C=CC(=O)N1CCN2c3c(cnc4cc(-c5c(C)ccc6cc[nH]c(=O)c56)c(Cl)cc34)OC[C@H]2C1 (single isomer, unassigned) [Compound 69] was tested, and the IC50 (KRasG12C [1]) was 2.7 µM and the “KRasG12C M.S. Binding Mean adduct %” value (KRasG12C [2]) was 12%.

C=CC(=O)N1CCN2c3c(cnc4cc(-c5c(C)ccc6cc[nH]c(=O)c56)c(Cl)cc34)OC[C@H]2C1 (single isomer, unassigned) [Compound 70] was tested, and the IC50 (KRasG12C [1]) was 0.049 µM and the “KRasG12C M.S. Binding Mean adduct %” value (KRasG12C [2]) was 94%.

In the case of C=CC(=O)N1CCN2c3c(cnc4cc(-c5c(C)ccc6[nH]c(=O)[nH]c56)c(Cl)cc34)OC[C@H]2C1 (single isomer, unassigned) [Compound 71], the IC50 (KRasG12C [1]) is reported as 0.047 µM and the “KRasG12C M.S. Binding Mean adduct %” value (KRasG12C [2]) is reported as 94%.

For C#Cc1cc2c3c(cnc2cc1-c1c(C)ccc2[nH]ncc12)OC[C@H]1CN(C(=O)C=C)CCN31 (single isomer, unassigned) [Compound 75], the IC50 (KRasG12C [1]) was 0.096 µM and the “KRasG12C M.S. Binding Mean adduct %” value (KRasG12C [2]) was 96%.

With C=CC(=O)N1CCN2c3c(cnc4c(F)c(-c5c(C)ccc6[nH]cnc56)c(Cl)cc34)OC[C@H]2C1 (single isomer, unassigned) [Compound 77] the IC50 (KRasG12C [1]) was 0.028 µM and the “KRasG12C M.S. Binding Mean adduct %” value (KRasG12C [2]) was 60%.

For C=CC(=O)N1CCN2c3c(cnc4c(F)c(-c5c(C)ccc6c5C(=O)NC6)c(Cl)cc34)OC[C@H]2C1 (single isomer, unassigned) [Compound 86], the IC50 (KRasG12C [1]) was 0.041 µM and the “KRasG12C M.S. Binding Mean adduct %” value (KRasG12C [2]) was 95%.

With C=CC(=O)N1CCN2c3c(cnc4c(F)c(-c5c(O)cccc5F)c(Cl)cc34)NC(=O)[C@H]2C1 (single isomer, unassigned) [Compound 88] the IC50 (KRasG12C [1]) was 0.014 µM and the “KRasG12C M.S. Binding Mean adduct %” value (KRasG12C [2]) was 96%.

With C=CC(=O)N1CCN2c3c(cnc4c(C)c(-c5c(O)cccc5F)c(C)nc34)N(C)C(=O)[C@H]2C1 (single isomer, unassigned) [Compound 92] the IC50 (KRasG12C [1]) was 0.082 µM and the “KRasG12C M.S. Binding Mean adduct %” value (KRasG12C [2]) was 97%.

In the case of C=CC(=O)N1CCN2c3c(cnc4cc(-c5c(O)cccc5F)c(Cl)cc34)OC[C@H]2C1 (single isomer, unassigned) [Example 1], the IC50 (KRasG12C [1]) is reported as 0.186 µM and the “KRasG12C M.S. Binding Mean adduct %” value (KRasG12C [2]) is reported as 96%.

In the case of C=CC(=O)N1CCN2c3c(cnc4cc(-c5c(O)cccc5F)c(Cl)cc34)OC[C@H]2C1 (single isomer, unassigned) [Example 2], the IC50 (KRasG12C [1]) is reported as 0.281 µM and the “KRasG12C M.S. Binding Mean adduct %” value (KRasG12C [2]) is reported as 87%.

With C=CC(=O)N1CCN2c3c(cnc4cc(-c5c(C)ccc6[nH]ncc56)c(Cl)cc34)OC[C@H]2C1 (single isomer, unassigned) [Example 3] the IC50 (KRasG12C [1]) was 0.081 µM and the “KRasG12C M.S. Binding Mean adduct %” value (KRasG12C [2]) was 93%.

In the case of C=CC(=O)N1CCN2c3c(cnc4c(F)c(-c5c(O)cccc5F)c(Cl)cc34)OC[C@H]2C1 (single isomer, unassigned) [Example 7], the IC50 (KRasG12C [1]) is reported as 0.02 µM and the “KRasG12C M.S. Binding Mean adduct %” value (KRasG12C [2]) is reported as 95%.

In the case of C=CC(=O)N1CCN2c3c(cnc4c(F)c(-c5c(O)cccc5F)c(Cl)cc34)OC[C@H]2C1 (single isomer, unassigned) [Example 8], the IC50 (KRasG12C [1]) is reported as 8.5 µM.

In the case of C=CC(=O)N1CCN2c3c(cnc4c(F)c(-c5c(O)cccc5F)c(Cl)cc34)N(C)C(=O)C2C1 (single isomer, unassigned) [Example 18, 3-acryloyl-11-chloro-9-fluoro-10-(2-fluoro-6-hydroxyphenyl)-6-methyl-2,3,4,4a-tetrahydro-1H-pyrazino[1′,2′:4,5]pyrazino[2,3-c]quinolin-5(6H)-one], the IC50 (KRasG12C [1]) is reported as 3.5 µM and the “KRasG12C M.S. Binding Mean adduct %” value (KRasG12C [2]) is reported as 3%.

For C=CC(=O)N1CCN2c3c(cnc4c(F)c(-c5c(O)cccc5F)c(Cl)cc34)N(C)C(=O)C2C1 (single isomer, unassigned) [Example 19, 3-acryloyl-11-chloro-9-fluoro-10-(2-fluoro-6-hydroxyphenyl)-6-methyl-2,3,4,4a-tetrahydro-1H-pyrazino[1′,2′:4,5]pyrazino[2,3-c]quinolin-5(6H)-one], the IC50 (KRasG12C [1]) was over 9.2 µM and the “KRasG12C M.S. Binding Mean adduct %” value (KRasG12C [2]) was 3%.

For C=CC(=O)N1CCN2c3c(cnc4c(F)c(-c5c(O)cccc5F)c(Cl)cc34)N(C)C(=O)C2C1 (single isomer, unassigned) [Example 20, 3-acryloyl-11-chloro-9-fluoro-10-(2-fluoro-6-hydroxyphenyl)-6-methyl-2,3,4,4a-tetrahydro-1H-pyrazino[1′,2′:4,5]pyrazino[2,3-c]quinolin-5(6H)-one], the IC50 (KRasG12C [1]) was 0.63 µM and the “KRasG12C M.S. Binding Mean adduct %” value (KRasG12C [2]) was 51%.

For C=CC(=O)N1C[C@@H]2C(=O)N(C)c3cnc4c(F)c(-c5c(O)cccc5F)c(Cl)cc4c3N2C[C@H]1C (single isomer, unassigned) [Example 21], the IC50 (KRasG12C [1]) was 9.5 µM and the “KRasG12C M.S. Binding Mean adduct %” value (KRasG12C [2]) was 15%.

C=CC(=O)N1CCN2c3c(cnc4cc(-c5c(O)cccc5F)c(Cl)cc34)OC[C@H]2C1 (single isomer, unassigned) [Mixture of 1 & 2] gave an IC50 (KRasG12C [1]) of 0.211 µM.

With C=CC(=O)N1CCN2c3c(cnc4c(F)c(-c5c(O)cccc5F)c(F)cc34)N(C)C(=O)[C@H]2C1 [Compound 42, (4aR)-3-Acryloyl-9,11-difluoro-10-(2-fluoro-6-hydroxyphenyl)-6-methyl-2,3,4,4a-tetrahydro-1H-pyrazino[1′,2′:4,5]pyrazino[2,3-c]quinolin-5(6H)-one] the IC50 (KRasG12C [1]) was 0.077 µM.

For C=CC(=O)N1CCN2c3c(cnc4cc(-c5c(O)cccc5F)c(Cl)c(F)c34)N(C)C(=O)[C@H]2C1 [Compound 59, (4aR)-11-Chloro-12-fluoro-10-(2-fluoro-6-hydroxyphenyl)-6-methyl-3-(prop-2-enoyl)-2,3,4,4a-tetrahydro-1H-pyrazino[1′,2′:4,5]pyrazino[2,3-c]quinolin-5(6H)-one], the IC50 (KRasG12C [1]) was 0.202 µM.

With C=CC(=O)N1CCN2c3c(cnc4cc(-c5c(O)cccc5F)c(Cl)c(Cl)c34)N(C)C(=O)[C@H]2C1 [Compound 60, (4aR)-11,12-Dichloro-10-(2-fluoro-6-hydroxyphenyl)-6-methyl-3-(prop-2-enoyl)-2,3,4,4a-tetrahydro-1H-pyrazino[1′,2′:4,5]pyrazino[2,3-c]quinolin-5(6H)-one] the IC50 (KRasG12C [1]) was 0.501 µM.

For C=CC(=O)N1CCN2c3c(cnc4cc(-c5c(O)cccc5F)c(Cl)cc34)N(CC)C(=O)[C@H]2C1 [Compound 90, (4aR)-11-Chloro-6-ethyl-10-(2-fluoro-6-hydroxyphenyl)-3-(prop-2-enoyl)-2,3,4,4a-tetrahydro-1H-pyrazino[1′,2′:4,5]pyrazino[2,3-c]quinolin-5(6H)-one], the IC50 (KRasG12C [1]) was 0.333 µM.
